Reference: patent US6495566B2, “Tetrahydroquinoline derivatives as glycine antagonists” (Smithkline Beecham Corporation, priority 1998, dated 2002)
pKi: −log10 of the molar value.

Test system: formalin-induced pain
Assay: formalin test in mouse (licking time of injected paw)
Assay type: in vivo
Conditions: administered orally 1 hour before formalin injection
Protocol: The ability of compounds of the invention to inhibit pain in mouse has been assessed in the formalin test as described by Dubuisson and Dennis (Pain, 1977, 4:161-174). In this test 20 μl of 1% formalin was injected into the plantar surface of the mouse left hind paw. The amount of time, in seconds, the animals spent licking the injected paw for the first 5 minutes (early phase) and then from 20 to 60 minutes (late phase) after formalin was used as measurement of the intensity of pain. The compounds of the invention were administered orally 1 hour before formalin injection.

SMILES	ED50 (dose required to reduce the licking time by 50%) [mg/kg po]
O=C([O-])C1CC(=C2CCN(c3ccccc3)C2=O)c2ccc(Cl)cc2N1.[Na+] (single isomer, unassigned; (-)) [Example 21, (−)-Sodium 7-chloro-4-(2-oxo-1-phenyl-3-pyrrolidinylidene)-1,2,3,4-tetrahydro-2-quinolinecarboxylate]	0.14
O=C([O-])C1CC(C2=CCN(c3ccccc3)C2=O)c2ccc(Cl)cc2N1.[Na+] (single isomer, unassigned; (-)) [Example 2, (−)-Sodium 7-chloro-4-(1-phenyl-Δ^3-pyrrolin-2-one-3yl)-1,2,3,4-tetrahydroquinoline-2-carboxylate]	0.03
O=C(O)C1CC(C2=CCN(c3ccccc3)C2=O)c2ccc(Cl)cc2N1 (single isomer, unassigned; (+)) [Example 17, (+)Sodium7-chloro-4-(1-phenyl-Δ^3pyrrolin-2-one-3yl)-1,2,3,4-tetrahydroquinoline-2-carboxylate]	0.3

Test system: not given
Assay: not given
Conditions: not given

SMILES	melting point [°C]
O=C(O)C1CC(=C2CCCN(c3ccccc3)C2=O)c2ccc(Cl)cc2N1 (racemic) [Example 23, (±)-7-chloro-4-(2-oxo-1-phenyl-3-piperidinylidene)-1,2,3,4-tetrahydro-2-quinolinecarboxylic acid]	> 130

Molecular target: T1, strychnine insensitive glycine binding site associated with the NMDA receptor complex (Rattus norvegicus, UniProt P35439)
T1 construct: from tissue
Assay: affinity for the strychnine insensitive glycine binding site (procedure of Kishimoto H. et al)
Conditions: not given
Protocol: Thus the ability to bind at the strychnine insensitive glycine binding site was determined using the procedure of Kishimoto H et al., J Neurochem 1981, 37, 1015-1024.
The affinity of the compound of the invention for the strychnine insensitive glycine binding site was determined using procedure of Kishimoto H. et al […].

SMILES	pKi
O=C(O)C1CC(=C2NC(=O)N(c3ccccc3)C2=O)c2ccc(Cl)cc2N1 (racemic) [Example 24, (±)-7-chloro-4-(2,5-dioxo-1-phenyl-imidazolidin-4-ylidene)-1,2,3,4-tetrahydro-2-quinolinecarboxylic acid]	7.80
O=C(O)C1CC(C2=CCN(c3ccccc3)C2=O)c2c(Cl)cc(Cl)cc2N1 (racemic) [Example 16, (±)-Sodium 5,7-dichloro-4-(1-phenyl-Δ^3-pyrrolin-2-one-3yl)-1,2,3,4-tetrahydroquinoline-2-carboxylate]	7.80
O=C(O)C1CC(C2=CCCN(c3ccccc3)C2=O)c2ccc(Cl)cc2N1 (racemic) [Example 15, (±)-Sodium 7-chloro-4-(1-phenyl-Δ^3-5,6-dihydro-pyridin-2-one-3yl)-1,2,3,4-tetrahydroquinoline-2-carboxylate]	7.73
O=C(O)C1CC(=C2CCN(c3ccccc3)C2=O)c2c(Cl)cc(Cl)cc2N1 (stereo not shown) [Example 30, Sodium 5,7-dichloro-4-(2-oxo-(1-phenyl)pyrrolidin-3-ylidene)-1,2,3,4-tetrahydro-2-quinoline carboxylate(enatiomer A)]	7.70
O=C(O)C1CC(C2=CCN(c3cccnc3)C2=O)c2ccc(Cl)cc2N1 (racemic) [Example 14, (±)-Sodium 7-chloro-4-(1-(3-pyridin)-Δ^3-pyrrolin-2-one-3yl)-1,2,3,4-tetrahydroquinoline-2-carboxylate]	7.90
CS(=O)(=O)Nc1ccc(N2CC=C(C3CC(C(=O)O)Nc4cc(Cl)ccc43)C2=O)cc1 (racemic) [Example 19, (+/−)7-chloro-4-(1-(4-methanesulfonylamino)-phenyl-1-Δ^3-pyrrolin-2-one-3yl)-1,2,3,4-tetrahydroquinoline-2-carboxylic acid]	8.90
O=C(O)C1CC(C2=CCN(c3ccccc3)C2=O)c2c(Cl)cc(Cl)cc2N1 (stereo not shown) [Example 29, Sodium, 5,7-Dichloro-4-(2-oxo-1-phenyl-Δ^3-pyrrolin-2-one-3-yl)-1,2,3,4-tetrahydro-quinoline-2-carboxylic acid; (enatiomer A)]	8.70
CC(=O)Nc1ccc(N2CC=C(C3CC(C(=O)O)Nc4cc(Cl)ccc43)C2=O)cc1 (racemic) [Example 18, (+/−)-7-chloro-4-(1-(4-acetylamino)-phenyl-Δ^3-pyrrolin-2-one-3yl)-1,2,3,4-tetrahydroquinoline-2-carboxylic acid]	7.78
CC(=O)Nc1ccc(N2CCC(=C3CC(C(=O)O)Nc4cc(Cl)ccc43)C2=O)cc1 (racemic) [Example 25, (+/−)-7-chloro-4-(2-oxo-1-(4-acetylamino)phenyl-pyrrolidin-3-ylidene)-1,2,3,4-tetrahydro-2-quinolinecarboxylic acid]	7.15
O=C(O)C1CC(=C2CCN(c3cccnc3)C2=O)c2ccc(Cl)cc2N1 (racemic) [Example 22, (±)-Sodium 7-chloro-4-(2-oxo-1-(pyridn-3yl)-pyrrolidin-3-ylidene)-1,2,3,4-tetrahydro-2-quinolinecarboxylate]	7.90
